Assay results from the supplement of paper PMC9402605.

Columns and labels:
Experiment in all cases: number of L4/adult animals relative to DMSO control (development) (fraction of control); higher = more growth (less toxic); extreme values may be limits of the assay
Conditions in all cases: concentration unit: uM
CB1072 unc-29(e1072) = tested on: CB1072 unc-29(e1072)
Description: (§1)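 About 20 L1 larvae of wild-type or anthelmintic-resistant C. elegans strains were grown in 96-well plates with HB101 E. coli and a compound dilution series (0.6% DMSO). The number of L4/adult animals was counted after 72 h (day 7 for the slow-growing PR1152) and normalised to DMSO wells. Values are the mean of 3 biological replicates, each done in technical triplicate.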

CB3474 ben-1(e1880) = tested on: CB3474 ben-1(e1880)
Description: as §1

CF1038 daf-16(mu86) = tested on: CF1038 daf-16(mu86)
Description: as §1

[1] = tested on: DA1316 avr-14;avr-15;glc-1
Description: as §1

N2 = tested on: N2
Description: as §1

NM1968 slo-1(js379) = tested on: NM1968 slo-1(js379)
Description: as §1

PR1152 cha-1(p1152) = tested on: PR1152 cha-1(p1152)
Description: as §1

RB2119 acr-23(ok2804) = tested on: RB2119 acr-23(ok2804)
Description: as §1

RP2674 mev-1(tr393) = tested on: RP2674 mev-1(tr393)
Description: as §1

VC731 unc-63(ok1075) = tested on: VC731 unc-63(ok1075)
Description: as §1

O=C(NCCc1ncc(C(F)(F)F)cc1Cl)c1ccccc1C(F)(F)F [fluopyram]
number of L4/adult animals
Conditions	CB1072 unc-29(e1072)	CB3474 ben-1(e1880)	CF1038 daf-16(mu86)	N2	NM1968 slo-1(js379)	PR1152 cha-1(p1152)	RB2119 acr-23(ok2804)	RP2674 mev-1(tr393)	VC731 unc-63(ok1075)	[1]
concentration: 0.09375	0.915	1.01	1.02	1.06	0.984	0.97	1.01	1.1	0.961	0.958
concentration: 0.1875	0.705	0.812	0.957	0.953	0.617	0.284	0.981	1.14	0.651	0.854
concentration: 0.375	0.689	0.674	0.451	0.712	0.0215	0	0.372	1.01	0.305	0.176
concentration: 0.75	0	0	0	0	0	0	0	0.999	0	0
concentration: 1.5	0	0	0	0	0	0	0	1.06	0	0
concentration: 3	0	0	0	0	0	0	0	1.03	0	0
concentration: 6	0	0	0	0	0	0	0	0.91	0	0

c1ccc([C@H]2CN3CCSC3=N2)cc1 [levamisole]
number of L4/adult animals
Conditions	CB1072 unc-29(e1072)	CB3474 ben-1(e1880)	CF1038 daf-16(mu86)	N2	NM1968 slo-1(js379)	PR1152 cha-1(p1152)	RB2119 acr-23(ok2804)	RP2674 mev-1(tr393)	VC731 unc-63(ok1075)	[1]
concentration: 9.375	1.09	0.906	0.606	0.964	0.888	0.329	0.95	0.783	1	0.774
concentration: 18.75	1.07	0.964	0.91	0.973	0.984	0.207	0.812	0.942	1.03	1.01
concentration: 37.5	1.1	1.06	1.01	1.05	0.95	0.0255	0.632	1.04	0.996	0.984
concentration: 75	1.01	0.914	0.827	1.08	0.856	0.00498	0.47	0.914	1.09	0.871
concentration: 150	1.08	0.627	0.678	0.535	0.595	0	0.13	0.352	1.07	0.487
concentration: 300	0.988	0.403	0.335	0.218	0.0768	0	0.0225	0.0923	1.02	0.106
concentration: 600	1.04	0.0551	0.0591	0.0242	0	0	0	0.029	1.04	0.00556
